Reference: patent US6703407B1, “Benzofuran compounds, compositions, and methods” (Eli Lilly and Company, priority 1994, dated 2004)

What was measured:
Type in all cases: in vivo, Sprague Dawley rats
ovariectomized rats [1] = experiment: Serum cholesterol in ovariectomized rat post-menopausal model (4-day dosing); details: oral daily for 4 days
Procedure: (§1) In the examples illustrating the methods, a post-menopausal model was used in which effects of different treatments upon circulating lipids were determined.
(§2) Seventy-five day old female Sprague Dawley rats (weight range of 200 to 225 g) were obtained from Charles River Laboratories (Portage, Mich.). The animals were either bilaterally ovariectomized (OVX) or exposed to a Sham surgical procedure at Charles River Laboratories, and then shipped after one week. Upon arrival, they were housed in metal hanging cages in groups of 3 or 4 per cage and had ad libitum access to food (calcium content approximately 0.5%) and water for one week. Room temperature was maintained at 22.20±1.7° C. with a minimum relative humidity of 40%. The photoperiod in the room was 12 hours light and 12 hours dark.
(§3) Dosing Regimen Tissue Collection. After a one week acclimation period (therefore, two weeks post-OVX) daily dosing with test compound was initiated. 17α-ethynyl estradiol or the test compound were given orally, unless otherwise stated, as a suspension in 1% carboxymethylcellulose or dissolved in 20% cyclodextrin. Animals were dosed daily for 4 days. Following the dosing regimen, animals were weighed and anesthetized with a ketamine: Xylazine (2:1, V:V) mixture and a blood sample was collected by cardiac puncture. The animals were then sacrificed by asphyxiation with CO2, the uterus was removed through a midline incision, and a wet uterine weight was determined.
Cholesterol Analysis. Blood samples were allowed to clot at room temperature for 2 hours, and serum was obtained following centrifugation for 10 minutes at 3000 rpm. Serum cholesterol was determined using a Boehringer Mannheim Diagnostics high performance cholesterol assay. Briefly the cholesterol was oxidized to cholest-4-en-3-one and hydrogen peroxide. The hydrogen peroxide was then reacted with phenol and 4-aminophenazone in the presence of peroxidase to produce a p-quinone imine dye, which was read spectrophotemetrically at 500 nm. Cholesterol concentration was then calculated against a standard curve. The entire assay was automated using a Biomek Automated Workstation.

[2] = system: Uterine Eosinophil Peroxidase (EPO); experiment: Uterine Eosinophil Peroxidase (EPO) Assay; details: for Uterine EPO (V. max): OVX rats, oral daily for 4 days
Source text: as §2, §3
Uterine Eosinophil Peroxidase (EPO) Assay. Uteri were kept at 4° C. until time of enzymatic analysis. The uteri were then homogenized in 50 volumes of 50 mM Tris buffer (pH−8.0) containing 0.005% Triton X-100. Upon addition of 0.01% hydrogen peroxide and 10 mM o-phenylenediamine (final concentrations) in Tris buffer, increase in absorbance was monitored for one minute at 450 nm. The presence of eosonophils in the uterus is an indication of estrogenic activity of a compound. The maximal velocity of a 15 second interval was determined over the initial, linear portion of the reaction curve.

ovariectomized rats [3] = experiment: Uterine weight in ovariectomized rat post-menopausal model (4-day dosing); details: for Uterine Weight (% increase vs. OVX): OVX rats, oral daily for 4 days
Procedure: as §1, §2, §3

| Compound | Serum Cholesterol (% decrease vs. OVX) (ovariectomized rats [1]; dose 0.1 mg/kg) | Uterine EPO (V. max) ([2]; dose 0.1 mg/kg) | eosinophil infiltration into the uterus (number of eosinophils in the stromal layer, in words) ([2]; ovariectomized rats) | Uterine Weight (% increase vs. OVX) (ovariectomized rats [3]; dose 0.1 mg/kg) | uterine weight vs. ovariectomized test animals (in words) (ovariectomized rats [3]; orally administered at 0.1 mg/Kg/day) | Serum Cholesterol (% decrease vs. OVX) (ovariectomized rats [1]; dose 1.0 mg/kg) | Serum Cholesterol (% decrease vs. OVX) (ovariectomized rats [1]; dose 10.0 mg/kg) | Uterine EPO (V. max) ([2]; dose 1.0 mg/kg) | Uterine EPO (V. max) ([2]; dose 10.0 mg/kg) | Uterine Weight (% increase vs. OVX) (ovariectomized rats [3]; dose 1.0 mg/kg) | Uterine Weight (% increase vs. OVX) (ovariectomized rats [3]; dose 10.0 mg/kg) |
| --- | --- | --- | --- | --- | --- | --- | --- | --- | --- | --- | --- |
| C#C[C@]1(O)CC[C@H]2[C@@H]3CCc4cc(O)ccc4[C@H]3CC[C@@]21C [EE2, 17α-ethynyl estradiol, reference compound] | 92.6 % decrease vs. OVX | 201.9 V. max | substantial, expected increase in eosinophil infiltration | 172.8 % increase vs. OVX | substantially greater than the uterine weight of ovariectomized test animals |  |  |  |  |  |  |
| Cl.Oc1ccc(-c2oc3cc(O)ccc3c2Cc2ccc(OCCN3CCCCC3)cc2)cc1 [Ex-3, [2-(4-Hydroxyphenyl)-6-hydroxybenzofuran-3-yl][4-[2-(1-piperidinyl)ethoxy]phenyl]methane Hydrochloride] | 38.9 % decrease vs. OVX | 4.7 V. max |  | 8.6 % increase vs. OVX |  | 53.0 % decrease vs. OVX | 73.3 % decrease vs. OVX | 5.8 V. max | 11.3 V. max | 26.3 % increase vs. OVX | 30.1 % increase vs. OVX |
